Measured values taken from ChEMBL document CHEMBL1142962, “Antiproliferative prenylated stilbenes and flavonoids from Macaranga alnifolia from the Madagascar rainforest” (J Nat Prod, 2007).
pIC50: −log10 of the molar value.

System: A2780 (human ovarian cancer)
Test: Antiproliferative activity against drug-sensitive human A2780 cells

## COc1cc(/C=C/c2cc(O)c(CC=C(C)C)c(O)c2)cc2c1O[C@]1(C)CC[C@@H](O)C(C)(C)[C@H]1C2 [SCHWEINFURTHIN F]
  pIC50: 5.30
